Paper PMC12527922, “Cocaine chemogenetics blunts drug-seeking by synthetic physiology” (Nature, 2025)
Values joined by “and” are separate entries in the source; they are usually repeats but may differ in a detail not shown here. Equal values may be shown once.

Tested on: GRABDA dopamine sensor, nucleus accumbens shell
Assay: Fibre photometry of dopamine (GRABDA) after cocaine administration
Format: in vivo, rat
Settings: for GRABDA dopamine signal, Mean: ED Fig. 9d; for GRABDA response versus saline: cocaine 5, 10, 20 mg per kg i.p.
Description: Male Sprague–Dawley rats were anaesthetized with isoflurane (1.5–2%) and then placed onto a stereotaxic frame (Kopf) and injected with AAV5-Syn::coca-5HT3-IRES-mCherry (0.5 µl, 4.95 × 10^12 vg per ml) into the LHb (AP, −3.8 mm relative to bregma; ML, ±0.7 mm; DV, −5.25 mm, at a 10° angle) (n = 5) or underwent sham surgery (n = 6). Rats were also implanted with an optic fibre (400 µm core, 0.50 NA) attached to a 2.5 mm diameter ferrule (Thorlabs) directed to the medial shell of the nucleus accumbens (AP, +1.7 mm relative to bregma; ML, ±0.9 mm; DV, −7.0 mm). To ensure that AAV9-Syn::GRABDA1m was transduced at the direct vicinity of the fibre tip, we coated the fibre with the AAV (0.4 µl, 5 × 10^12 vg per ml) using a silk fibroin film before its implantation as previously described.
For fibre photometry, dopamine (GRABDA) dynamics were measured using a Tucker-Davis Technologies (TDT) system in anaesthetized rats. […] Data were acquired at 1 kHz. On the testing day, rats were anaesthetized (isoflurane: induction, 5%; maintenance, 3%) and attached to a photometry patch cord (400 μm core, 0.50 NA). GRABDA signals were then collected for 5 min, followed by a saline i.p. injection, and additional GRABDA signal measurement for 20 min. Cocaine was then injected i.p. at 20, 10 or 5 mg per kg, and the GRABDA signal was measured for an additional 20 min. Each rat was tested three times with cocaine doses administered in randomized order. Fibre photometry analyses were performed using scripts in MATLAB R2023b (MathWorks) based on codes from the Barker (https://github.com/djamesbarker)[64] and Lerner (https://github.com/talialerner/)[65] laboratories. […] The GRABDA signal was normalized to values at 1 min before saline or cocaine injection and shown as the average z-scored activity per min. […] Fibre photometry data are represented as mean ± s.e.m. Statistical analyses were performed using Prism 10 (GraphPad).

[1] = ED Fig. 9a, Cocaine 10 mg/kg, Time 5
[2] = ED Fig. 9a, Cocaine 10 mg/kg, Time 6
[3] = ED Fig. 9a, Cocaine 10 mg/kg, Time 7
[4] = ED Fig. 9a, Cocaine 10 mg/kg, Time 8
[5] = ED Fig. 9a, Cocaine 10 mg/kg, Time 9
[6] = ED Fig. 9a, Cocaine 10 mg/kg, Time 10
[7] = ED Fig. 9a, Cocaine 10 mg/kg, Time 11
[8] = ED Fig. 9a, Cocaine 10 mg/kg, Time 12
[9] = ED Fig. 9a, Cocaine 10 mg/kg, Time 13
[10] = ED Fig. 9a, Cocaine 10 mg/kg, Time 14
[11] = ED Fig. 9a, Cocaine 10 mg/kg, Time 15
[12] = ED Fig. 9a, Cocaine 10 mg/kg, Time 16
[13] = ED Fig. 9a, Cocaine 10 mg/kg, Time 17
[14] = ED Fig. 9a, Cocaine 10 mg/kg, Time 18
[15] = ED Fig. 9a, Cocaine 10 mg/kg, Time 19
[16] = ED Fig. 9a, Cocaine 10 mg/kg, Time -1

COC(=O)[C@H]1[C@@H](OC(=O)c2ccccc2)C[C@@H]2CC[C@H]1N2C [cocaine]
GRABDA dopamine signal, single rats (ED Fig. 9a, Cocaine 10 mg/kg, Time 4): 1.256 and 1.397 and 0.09982 and 0.6394 and 1.0999 and 0.05112 | GRABDA dopamine signal, AVG [1]: 1.193 | GRABDA dopamine signal, single rats [1]: 1.343 and 2.078 and 0.3984 and 0.8156 and 2.4787 and 0.0445 | GRABDA dopamine signal, AVG [2]: 1.422 | GRABDA dopamine signal, single rats [2]: 1.711 and 2.382 and 0.7218 and 1.242 and 2.331 and 0.1429 | GRABDA dopamine signal, AVG [3]: 1.596 | GRABDA dopamine signal, single rats [3]: 1.781 and 2.522 and 1.248 and 1.497 and 2.407 and 0.1218 | GRABDA dopamine signal, AVG [4]: 1.699 | GRABDA dopamine signal, single rats [4]: 2.125 and 2.686 and 1.2639 and 1.736 and 2.313 and 0.06957 | GRABDA dopamine signal, AVG [5]: 1.935 | GRABDA dopamine signal, single rats [5]: 2.098 and 2.8744 and 1.781 and 1.888 and 2.927 and 0.03932 | GRABDA dopamine signal, AVG [6]: 2.176 | GRABDA dopamine signal, single rats [6]: 2.19 and 2.83 and 2.002 and 2.24 and 3.737 and 0.0549 | GRABDA dopamine signal, AVG [7]: 2.088 | GRABDA dopamine signal, single rats [7]: 2.259 and 2.779 and 2.031 and 2.445 and 2.889 and 0.1232 | GRABDA dopamine signal, AVG [8]: 1.996 | GRABDA dopamine signal, single rats [8]: 2.418 and 2.64 and 2.12 and 2.366 and 2.425 and 0.00481 | GRABDA dopamine signal, AVG [9]: 2.15 | GRABDA dopamine signal, single rats [9]: 2.55 and 2.491 and 2.555 and 2.51 and 2.634 and 0.161 | GRABDA dopamine signal, AVG [10]: 2.1808 | GRABDA dopamine signal, single rats [10]: 2.759 and 2.573 and 2.372 and 2.6549 and 2.629 and 0.09693 | GRABDA dopamine signal, AVG [11]: 2.145 | GRABDA dopamine signal, single rats [11]: 2.608 and 2.303 and 2.535 and 2.6631 and 2.692 and 0.06715 | GRABDA dopamine signal, AVG [12]: 2.005 | GRABDA dopamine signal, single rats [12]: 2.483 and 2.2 and 2.525 and 2.513 and 2.213 and 0.09632 | GRABDA dopamine signal, AVG [13]: 2.106 | GRABDA dopamine signal, single rats [13]: 2.751 and 1.972 and 2.4136 and 2.994 and 2.448 and 0.05475 | GRABDA dopamine signal, AVG [14]: 1.975 | GRABDA dopamine signal, single rats [14]: 2.385 and 1.7832 and 2.833 and 2.375 and 2.433 and 0.03971 | GRABDA dopamine signal, AVG [15]: 1.865 | GRABDA dopamine signal, single rats [15]: 2.396 and 1.613 and 2.323 and 2.558 and 2.225 and 0.07693 | GRABDA dopamine signal, AVG [16]: 0.04715 | GRABDA dopamine signal, single rats [16]: 0.0433 and 0.0669 and 0.08953 and 0.0687 | GRABDA dopamine signal, AVG (ED Fig. 9c, Cocaine 20 mg/kg, Time 0): 0.0619 | GRABDA dopamine signal, AVG (ED Fig. 9c, Cocaine 20 mg/kg, Time 1): 0.07229 | GRABDA dopamine signal, AVG (ED Fig. 9c, Cocaine 20 mg/kg, Time 2): 0.3247 | GRABDA dopamine signal, AVG (ED Fig. 9c, Cocaine 20 mg/kg, Time 3): 0.7746 | GRABDA dopamine signal, AVG (ED Fig. 9c, Cocaine 20 mg/kg, Time 4): 1.201 | GRABDA dopamine signal, AVG (ED Fig. 9c, Cocaine 20 mg/kg, Time 5): 1.589 | GRABDA dopamine signal, AVG (ED Fig. 9c, Cocaine 20 mg/kg, Time 6): 1.681 | GRABDA dopamine signal, AVG (ED Fig. 9c, Cocaine 20 mg/kg, Time 7): 1.863 | GRABDA dopamine signal, AVG (ED Fig. 9c, Cocaine 20 mg/kg, Time 8): 1.725 | GRABDA dopamine signal, AVG (ED Fig. 9c, Cocaine 20 mg/kg, Time 9): 1.85 | GRABDA dopamine signal, AVG (ED Fig. 9c, Cocaine 20 mg/kg, Time 10): 1.747 | GRABDA dopamine signal, AVG (ED Fig. 9c, Cocaine 20 mg/kg, Time 11): 1.666 | GRABDA dopamine signal, AVG (ED Fig. 9c, Cocaine 20 mg/kg, Time 12): 1.553 | GRABDA dopamine signal, AVG (ED Fig. 9c, Cocaine 20 mg/kg, Time 13): 1.4 | GRABDA dopamine signal, AVG (ED Fig. 9c, Cocaine 20 mg/kg, Time 14): 1.393 | GRABDA dopamine signal, AVG (ED Fig. 9c, Cocaine 20 mg/kg, Time 15): 1.467 | GRABDA dopamine signal, AVG (ED Fig. 9c, Cocaine 20 mg/kg, Time 16): 1.282 | GRABDA dopamine signal, AVG (ED Fig. 9c, Cocaine 20 mg/kg, Time 17): 1.1 | GRABDA dopamine signal, AVG (ED Fig. 9c, Cocaine 20 mg/kg, Time 18): 1.175 | GRABDA dopamine signal, AVG (ED Fig. 9c, Cocaine 20 mg/kg, Time 19): 1.238 | GRABDA dopamine signal, AVG (ED Fig. 9c, Cocaine 20 mg/kg, Time -1): -0.01168 | GRABDA dopamine signal, Mean (Cocaine 20 mg/kg, Time 0): -0.2698 | GRABDA dopamine signal, Mean (Cocaine 20 mg/kg, Time 1): -0.1247 | GRABDA dopamine signal, Mean (Cocaine 20 mg/kg, Time 2): 0.09345 | GRABDA dopamine signal, Mean (Cocaine 20 mg/kg, Time 3): 0.3137 | GRABDA dopamine signal, Mean (Cocaine 20 mg/kg, Time 4): 0.5516 | GRABDA dopamine signal, Mean (Cocaine 20 mg/kg, Time 5): 0.5577 | GRABDA dopamine signal, Mean (Cocaine 20 mg/kg, Time 6): 0.3392 | GRABDA dopamine signal, Mean (Cocaine 20 mg/kg, Time 7): 0.3431 | GRABDA dopamine signal, Mean (Cocaine 20 mg/kg, Time 8): 0.2873 | GRABDA dopamine signal, Mean (Cocaine 20 mg/kg, Time 9): 0.5323 | GRABDA dopamine signal, Mean (Cocaine 20 mg/kg, Time 10): 0.4252 | GRABDA dopamine signal, Mean (Cocaine 20 mg/kg, Time 11): 0.3604 | GRABDA dopamine signal, Mean (Cocaine 20 mg/kg, Time 12): 0.1832 | GRABDA dopamine signal, Mean (Cocaine 20 mg/kg, Time 13): 0.2813 | GRABDA dopamine signal, Mean (Cocaine 20 mg/kg, Time 14): 0.2778 | GRABDA dopamine signal, Mean (Cocaine 20 mg/kg, Time 15): 0.4094 | GRABDA dopamine signal, Mean (Cocaine 20 mg/kg, Time 16): 0.4918 | GRABDA dopamine signal, Mean (Cocaine 20 mg/kg, Time 17): 0.3214 | GRABDA dopamine signal, Mean (Cocaine 20 mg/kg, Time 18): 0.2818 | GRABDA dopamine signal, Mean (Cocaine 20 mg/kg, Time 19): 0.2119 | GRABDA dopamine signal, Mean (Cocaine 20 mg/kg, Time -1): 0.05504 | GRABDA response versus saline (coca-5HT3 rats): did not produce statistically significant increases | GRABDA response versus saline (control rats): significantly increased
